According to PubChem BioAssay (NCI):
Values joined by “and” are separate entries in the source; they are usually repeats but may differ in a detail not shown here. Equal entries are not always repeated.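 Protocol summary: plate cells (96-well), add compound at 5 concentrations, incubate 48 h, interpolate endpoints linearly. Here, GI50 denotes the concentration required for 50% inhibition of growth. Definition used: TGI = concentration required for complete inhibition of growth.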

Experiments:
Assay in all cases: NCI tumour cell line growth inhibition, 48 h
RXF-631 renal = test system: RXF-631 renal
SN12K1 renal = test system: SN12K1 renal
P388 leukemia = test system: P388 leukemia
P388/ADR leukemia = test system: P388/ADR leukemia

Row | SMILES | TGI (RXF-631 renal) [µM] | GI50 (SN12K1 renal) [µM] | TGI (SN12K1 renal) | GI50 (P388 leukemia) [µM] | TGI (P388 leukemia) | GI50 (P388/ADR leukemia) [µM] | TGI (P388/ADR leukemia) [µM]
1 | Oc1ccc(Cn2c(-c3ccc(O)cc3)nc3ccccc32)cc1 | > 100 | – | – | – | – | – | –
2 | C(=N/NC1=NCCN1)/c1c2ccccc2c(/C=N\NC2=NCCN2)c2ccccc12 | – | 0.0688 | 0.933 µM and 0.222 µM | 0.0561 | 0.571 µM and 1.08 µM | 86.6 | 116
